The values below come from patent publication US11034728B2, “Peptides for binding epidermal growth factor” (3M INNOVATIVE PROPERTIES COMPANY, priority 2016, dated 2021).

For assay [1], the target named is T1, EGF (Homo sapiens, UniProt P01133). Briefly: biochemical. The settings on record: binding affinity (KD) for EGF, linker modified peptide immobilized on CM5 chip, Biacore 3000, 25° C., HBS-EP, EGF 62.5-1000 nM, 1-to-1 Langmuir fit. For orientation: SPR reads the build-up and loss of mass on a sensor chip optically.
Experimental: “Test Method A” refers to the following general surface plasmon resonance (SPR) binding assay. Target protein (e.g., EGF and TNF-□) is immobilized at 25° C. and diluted peptides are injected for 3 min at a flow rate of 10 μl/min at 25° C. Binding assay is performed according to detailed Test method A in Examples.
The following Test Method A was used for determining the binding affinity (KD) of SEQ ID NO: 1 for EGF and TNF-□□ Binding experiments were performed using Biacore 3000 optical biosensors equipped with research-grade CM5 sensor chips (GE Healthcare Bio-Sciences Corporation). The reagents used for the amine-coupling steps [(1-ethyl-3-(3-dimethylaminopropyl)-carbodiimide (EDC); N-hydroxysuccinimide (NHS); and ethanolamine hydrochloride-NaOH (1 M, pH 8.5)] were obtained from GE Healthcare Bio-Sciences Corporation. In order to efficiently immobilize the peptide on the sensor chips, a modified version of SEQ ID NO:1 was prepared by SPPS in which a “CK” amino acid linker sequence was added to the N-terminal end of the SEQ ID NO: 1 peptide (i.e. linker modified version of SEQ ID NO: 1 for immobilization being [sequence]). A standard coupling protocol was employed to immobilize the linker modified version of SEQ ID NO: 1 via the lysine residues. The immobilization was performed at 25° C. using HBS-EP as the running buffer. […]
For assay [2], the target named is T1, EGF. Briefly: Dot blotting analysis, EGF spotted on membrane, probed with biotinylated peptide and Streptavidin-HRP. The format is binding. Also noted: Recombinant Human Epidermal Growth Factor (EGF); purchased Abcam plc, Cambridge, Mass. Particulars: EGF 10 nM spotted; biotinylated peptide 10 ng/mL; Streptavidin-HRP, TMB. The protocol: EGF (1 microliter of a 10 nM solution in PBS was spotted a nitrocellulose membrane (obtained from Thermo Fisher Scientific) and the membrane was dried in air for about 30 minutes. The membrane was then incubated in 15 mL of blocking buffer (3 wt. % BSA in PBS) for one hour at room temperature. The membrane was washed three times (15 minutes for each wash) with 15 mL portions of fresh PBST. The washed membrane was incubated with Biotinylated SEQ ID NO: 1 [10 mL of a 10 ng/mL solution in blocking buffer (3 wt. % BSA in PBS)] with gentle agitation for one hour. The membrane was again washed three times (15 minutes for each wash) with 15 mL portions of fresh PBST. The washed membrane was incubated with Streptavidin-HRP [1:5000 dilution in 10 mL of the blocking buffer (3 wt. % BSA in PBS)] for 30 minutes with gentle agitation. Following the incubation, the membrane was washed three times (15 minutes for each wash) with 15 mL portions of fresh PBST. The washed membrane was incubated with 10 mL of the development solution for horseradish peroxidase (TMB-Blotting Substrate Solution, Pierce-Fisher Scientific) with gentle agitation. The color development was stopped by adding water.

Ends that are not written are not given here.

T1 sequence (P01133 971-1023 limits assumed): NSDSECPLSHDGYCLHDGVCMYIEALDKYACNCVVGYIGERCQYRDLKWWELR

The Kd is a measure of binding affinity in units of concentration. Low values mean higher affinity, high ones lower affinity. In turn, “Ac-YVSPGMKNVNWWSHWWHATD-NH2 [SEQ ID NO: 1]” yielded a dissociation constant Kd on EGF [1] of 700 nM. Regarding “Biotinylated SEQ ID NO: 1: Biotinylated version of peptide SEQ ID NO: 1, obtained from GenScript (YVSPGMKNVNWWSHWWHATD; also: biotinylated, place not given here)”, in the assay with EGF [2], the “Dot blot colour development at EGF application site (affinity for EGF)” value is recorded as “A dark spot developed”.
